Results reported in PMC5218480 (PLoS ONE, 2017).

Test system: MV-4-11 cells
Assay: Gene expression microarray analysis (Affymetrix PrimeView) and GSEA
Format: cell-based, human
Parameters: RFU PODN (11730768_x_at) / Fold change /veh PODN (11730768_x_at) / RFU LINC00158 (11744669_a_at) / Fold change /veh LINC00158 (11744669_a_at) / RFU DUSP10 (11751237_a_at) / Fold change /veh DUSP10 (11751237_a_at) / RFU ID3 (11757404_x_at) / Fold change /veh ID3 (11757404_x_at) / RFU PLEKHG5 (11737974_s_at) / Fold change /veh PLEKHG5 (11737974_s_at) / RFU LRRC4B (11730491_at) / Fold change /veh LRRC4B (11730491_at) / RFU GIMAP4 (11747438_a_at) / Fold change /veh GIMAP4 (11747438_a_at) / RFU KRT8 (11758183_x_at) / Fold change /veh KRT8 (11758183_x_at) / RFU CNN1 (11734310_a_at) / Fold change /veh CNN1 (11734310_a_at) / RFU VPS37D (11726825_at) / Fold change /veh VPS37D (11726825_at) / RFU C10orf10 (11716522_x_at) / Fold change /veh C10orf10 (11716522_x_at) / RFU KIR2DL2 /// KIR2DL4 /// KIR2DL5A /// KIR2DL5B /// KIR2DS1 /// KIR2DS2 /// KIR2DS3 /// KIR2DS4 /// KIR3DL3 /// KIR3DL3 /// KIR3DS1 (11738374_at) / Fold change /veh KIR2DL2 /// KIR2DL4 /// KIR2DL5A /// KIR2DL5B /// KIR2DS1 /// KIR2DS2 /// KIR2DS3 /// KIR2DS4 /// KIR3DL3 /// KIR3DL3 /// KIR3DS1 (11738374_at) / RFU C1QL1 (11718748_at) / Fold change /veh C1QL1 (11718748_at) / RFU TMPRSS4 (11747572_a_at) / Fold change /veh TMPRSS4 (11747572_a_at) / RFU HAMP (11756126_x_at) / Fold change /veh HAMP (11756126_x_at) / RFU RNFT2 (11725882_a_at) / Fold change /veh RNFT2 (11725882_a_at) / RFU NR4A2 (11747474_a_at) / Fold change /veh NR4A2 (11747474_a_at) / RFU ABCC12 (11746883_a_at) / Fold change /veh ABCC12 (11746883_a_at) / RFU TMEM136 (11760407_x_at) / Fold change /veh TMEM136 (11760407_x_at) / RFU CLDN22 /// WWC2 (11732394_at) / Fold change /veh CLDN22 /// WWC2 (11732394_at) / RFU HLA-DPB1 (11760878_x_at) / Fold change /veh HLA-DPB1 (11760878_x_at) / RFU SPINT1 (11716480_a_at) / Fold change /veh SPINT1 (11716480_a_at) / RFU GAP43 (11754022_s_at) / Fold change /veh GAP43 (11754022_s_at) / RFU A4GNT (11735810_at) / Fold change /veh A4GNT (11735810_at) / RFU PRB3 (11715151_x_at) / Fold change /veh PRB3 (11715151_x_at) / RFU TUBB4B (11761932_at) / Fold change /veh TUBB4B (11761932_at) / RFU CAPN14 (11732068_a_at) / Fold change /veh CAPN14 (11732068_a_at) / RFU TMCC2 (11721928_a_at) / Fold change /veh TMCC2 (11721928_a_at) / RFU IRGQ (11745062_a_at) / Fold change /veh IRGQ (11745062_a_at) / RFU FAM174B (11720279_a_at) / Fold change /veh FAM174B (11720279_a_at) / RFU TMPRSS4 (11748680_a_at) / Fold change /veh TMPRSS4 (11748680_a_at) / RFU FAM212B (11763350_a_at) / Fold change /veh FAM212B (11763350_a_at) / RFU PLEKHG5 (11743358_a_at) / Fold change /veh PLEKHG5 (11743358_a_at) / RFU ZSCAN30 (11745921_a_at) / Fold change /veh ZSCAN30 (11745921_a_at) / RFU CMKLR1 (11741424_a_at) / Fold change /veh CMKLR1 (11741424_a_at) / RFU LOC101060620 /// MAPK8IP1 (11723275_at) / Fold change /veh LOC101060620 /// MAPK8IP1 (11723275_at) / RFU SPTSSB (11747773_x_at) / Fold change /veh SPTSSB (11747773_x_at) / RFU PRSS12 (11739890_at) / Fold change /veh PRSS12 (11739890_at) / RFU BIN1 (11741810_x_at) / Fold change /veh BIN1 (11741810_x_at) / RFU WNT11 (11732464_a_at) / Fold change /veh WNT11 (11732464_a_at) / RFU C10orf10 (11716521_a_at) / Fold change /veh C10orf10 (11716521_a_at) / RFU C5orf56 (11738089_at) / Fold change /veh C5orf56 (11738089_at) / RFU CYB561 (11721691_x_at) / Fold change /veh CYB561 (11721691_x_at) / RFU ANKRD19P (11752326_a_at) / Fold change /veh ANKRD19P (11752326_a_at) / RFU OR2T12 /// OR2T33 /// OR2T8 (11738714_s_at) / Fold change /veh OR2T12 /// OR2T33 /// OR2T8 (11738714_s_at) / RFU VCAN (11748164_a_at) / Fold change /veh VCAN (11748164_a_at) / RFU JSRP1 (11732532_at) / Fold change /veh JSRP1 (11732532_at) / RFU KRTAP10-11 (11738290_x_at) / Fold change /veh KRTAP10-11 (11738290_x_at) / RFU MYO3A (11730013_a_at) / Fold change /veh MYO3A (11730013_a_at) / RFU EBF3 (11725865_a_at) / Fold change /veh EBF3 (11725865_a_at) / RFU CAMK2N1 (11719241_x_at) / Fold change /veh CAMK2N1 (11719241_x_at) / RFU C5orf56 (11738088_a_at) / Fold change /veh C5orf56 (11738088_a_at) / RFU OLFML3 (11715873_a_at) / Fold change /veh OLFML3 (11715873_a_at) / RFU LOC100653217 /// NTM (11731650_a_at) / Fold change /veh LOC100653217 /// NTM (11731650_a_at) / RFU MAPK11 (11762145_a_at) / Fold change /veh MAPK11 (11762145_a_at) / RFU FIZ1 (11724087_x_at) / Fold change /veh FIZ1 (11724087_x_at) / RFU OASL (11726364_x_at) / Fold change /veh OASL (11726364_x_at) / RFU SOX15 (11748057_x_at) / Fold change /veh SOX15 (11748057_x_at) / RFU CD79A (11719716_a_at) / Fold change /veh CD79A (11719716_a_at) / RFU HIST1H1D (11736915_at) / Fold change /veh HIST1H1D (11736915_at) / RFU CASKIN2 (11723855_a_at) / Fold change /veh CASKIN2 (11723855_a_at) / RFU LOC730098 (11760151_x_at) / Fold change /veh LOC730098 (11760151_x_at) / RFU OR4N2 (11742367_at) / Fold change /veh OR4N2 (11742367_at) / RFU PRRT2 (11749266_a_at) / Fold change /veh PRRT2 (11749266_a_at) / RFU SNX32 (11753110_a_at) / Fold change /veh SNX32 (11753110_a_at) / RFU CDHR5 (11726645_a_at) / Fold change /veh CDHR5 (11726645_a_at) / RFU RCAN1 (11760418_a_at) / Fold change /veh RCAN1 (11760418_a_at) / RFU FAM167A (11723789_a_at) / Fold change /veh FAM167A (11723789_a_at) / RFU FAM26E (11764081_at) / Fold change /veh FAM26E (11764081_at) / RFU ISYNA1 (11749810_s_at) / Fold change /veh ISYNA1 (11749810_s_at) / RFU ACY1 (11761880_at) / Fold change /veh ACY1 (11761880_at) / RFU 11764098_at / Fold change /veh 11764098_at / RFU SAMD14 (11745864_x_at) / Fold change /veh SAMD14 (11745864_x_at) / RFU NPB (11741838_a_at) / Fold change /veh NPB (11741838_a_at) / RFU TMPRSS6 (11731388_a_at) / Fold change /veh TMPRSS6 (11731388_a_at) / RFU KRTAP10-2 (11738614_at) / Fold change /veh KRTAP10-2 (11738614_at) / RFU ARHGAP8 /// PRR5-ARHGAP8 (11727945_x_at) / Fold change /veh ARHGAP8 /// PRR5-ARHGAP8 (11727945_x_at) / RFU KRTAP5-7 /// NADSYN1 (11734609_at) / Fold change /veh KRTAP5-7 /// NADSYN1 (11734609_at) / RFU RASL12 (11751679_a_at) / Fold change /veh RASL12 (11751679_a_at) / RFU CDKN2B (11736163_a_at) / Fold change /veh CDKN2B (11736163_a_at) / RFU PRF1 (11729649_at) / Fold change /veh PRF1 (11729649_at) / RFU, ZNF638 /// ZNF638-IT1 / Fold change vs veh, ZNF638 /// ZNF638-IT1 / RFU, PANK3 / Fold change vs veh, PANK3 / RFU, SH3YL1 / Fold change vs veh, SH3YL1 / RFU, ZEB2 / Fold change vs veh, ZEB2 / RFU, NRIP1 / Fold change vs veh, NRIP1 / RFU, PTTG1IP / Fold change vs veh, PTTG1IP / RFU, CAPN2 / Fold change vs veh, CAPN2 / RFU, MED14 / Fold change vs veh, MED14 / RFU, SNORA58 / Fold change vs veh, SNORA58 / RFU, C1orf63 / Fold change vs veh, C1orf63 / RFU, LRRFIP1 / Fold change vs veh, LRRFIP1 / RFU, NDUFAF7 / Fold change vs veh, NDUFAF7 / RFU, SLC12A2 / Fold change vs veh, SLC12A2 / RFU, IBTK / Fold change vs veh, IBTK / RFU, ESF1 / Fold change vs veh, ESF1 / Fold change vs veh, TMEM50B / RFU, TAOK1 / Fold change vs veh, TAOK1 / RFU, ACBD3 / Fold change vs veh, ACBD3 / RFU, TMA16 / Fold change vs veh, TMA16 / RFU, RWDD3 / Fold change vs veh, RWDD3 / RFU, BCAT1 / Fold change vs veh, BCAT1 / RFU, EDEM3 / Fold change vs veh, EDEM3 / RFU, TMEM33 / Fold change vs veh, TMEM33 / RFU, WDR75 / Fold change vs veh, WDR75 / RFU, AHCTF1 / Fold change vs veh, AHCTF1 / RFU, TFRC / Fold change vs veh, TFRC / RFU, ZDHHC17 / Fold change vs veh, ZDHHC17 / RFU, NOM1 / Fold change vs veh, NOM1 / RFU, ARL8B / Fold change vs veh, ARL8B / RFU, ZBTB11 / Fold change vs veh, ZBTB11 / RFU, TAMM41 / Fold change vs veh, TAMM41 / RFU, KIAA1704 /// LOC100996395 / Fold change vs veh, KIAA1704 /// LOC100996395 / RFU, ING1 / Fold change vs veh, ING1 / RFU, TRMT61B / Fold change vs veh, TRMT61B / RFU, FUBP3 / Fold change vs veh, FUBP3 / RFU, TP53 / Fold change vs veh, TP53 / RFU, TNKS2 / Fold change vs veh, TNKS2 / RFU, ZFP14 / Fold change vs veh, ZFP14 / RFU, ACTR2 / Fold change vs veh, ACTR2 / RFU, PPP3R1 / Fold change vs veh, PPP3R1 / RFU, PIK3R1 / Fold change vs veh, PIK3R1 / RFU, HNRNPA1 / Fold change vs veh, HNRNPA1 / RFU, RNF170 / Fold change vs veh, RNF170 / RFU, ZNF28 / Fold change vs veh, ZNF28 / RFU, RNGTT / Fold change vs veh, RNGTT / RFU, OGT / Fold change vs veh, OGT / RFU, BRD1 / Fold change vs veh, BRD1 / RFU, MARS / Fold change vs veh, MARS / RFU, ZNF655 / Fold change vs veh, ZNF655 / RFU, FAHD1 / Fold change vs veh, FAHD1 / RFU, BDP1 / Fold change vs veh, BDP1 / RFU, LRRCC1 / Fold change vs veh, LRRCC1 / RFU, ARID1A / Fold change vs veh, ARID1A / RFU, ZNF146 / Fold change vs veh, ZNF146 / RFU, ZNF330 / Fold change vs veh, ZNF330 / RFU, GPN3 / Fold change vs veh, GPN3 / RFU, C9orf123 / Fold change vs veh, C9orf123 / RFU, N4BP2L2 / Fold change vs veh, N4BP2L2 / RFU, ARFIP1 / Fold change vs veh, ARFIP1 / RFU, FAM179B / Fold change vs veh, FAM179B / RFU, BCL10 / Fold change vs veh, BCL10 / RFU, UHRF1BP1L / Fold change vs veh, UHRF1BP1L / RFU, BET1 / Fold change vs veh, BET1 / RFU, CNOT2 / Fold change vs veh, CNOT2 / RFU, ZNF268 / Fold change vs veh, ZNF268 / Fold change vs veh, ZNF507 / RFU, DGCR2 / Fold change vs veh, DGCR2 / RFU, WDSUB1 / Fold change vs veh, WDSUB1 / Fold change vs veh, HSP90B1 /// MIR3652 / RFU, ADSS / Fold change vs veh, ADSS / RFU, GK / Fold change vs veh, GK / RFU, ZNF148 / Fold change vs veh, ZNF148 / RFU, TAF9 / Fold change vs veh, TAF9 / RFU, SLC1A5 / Fold change vs veh, SLC1A5 / RFU, SLMO2 / Fold change vs veh, SLMO2 / RFU, ABCC4 / Fold change vs veh, ABCC4 / RFU, LOC101060439 /// RAP1B / Fold change vs veh, LOC101060439 /// RAP1B / RFU, RFX7 / Fold change vs veh, RFX7 / RFU, GTPBP10 / Fold change vs veh, GTPBP10 / RFU, CNEP1R1 / Fold change vs veh, CNEP1R1 / RFU, BIVM-ERCC5 /// ERCC5 / Fold change vs veh, BIVM-ERCC5 /// ERCC5 / RFU, ILF3 / Fold change vs veh, ILF3 / RFU 11762660_at / Fold change /veh 11762660_at / RFU VCAN (11757783_s_at) / Fold change /veh VCAN (11757783_s_at) / RFU DDX43 (11728927_at) / Fold change /veh DDX43 (11728927_at) / RFU KRT8 (11758188_x_at) / Fold change /veh KRT8 (11758188_x_at) / RFU NKD1 (11759106_at) / Fold change /veh NKD1 (11759106_at) / RFU SRD5A1 (11742802_a_at) / Fold change /veh SRD5A1 (11742802_a_at) / RFU TPSAB1 /// TPSB2 (11721975_s_at) / Fold change /veh TPSAB1 /// TPSB2 (11721975_s_at) / RFU GSTM3 (11746129_a_at) / Fold change /veh GSTM3 (11746129_a_at) / RFU IL23R (11737362_x_at) / Fold change /veh IL23R (11737362_x_at) / RFU TMEM51 (11727254_a_at) / Fold change /veh TMEM51 (11727254_a_at) / RFU PIWIL2 (11732686_x_at) / Fold change /veh PIWIL2 (11732686_x_at) / RFU ORM1 (11744905_x_at) / Fold change /veh ORM1 (11744905_x_at) / RFU CCDC152 (11743942_at) / Fold change /veh CCDC152 (11743942_at) / RFU ECM1 (11717891_a_at) / Fold change /veh ECM1 (11717891_a_at) / RFU IL23R (11748794_a_at) / Fold change /veh IL23R (11748794_a_at) / RFU TNFAIP8L3 (11732012_x_at) / Fold change /veh TNFAIP8L3 (11732012_x_at) / RFU MBOAT4 (11741988_at) / Fold change /veh MBOAT4 (11741988_at) / RFU 11764193_at / Fold change /veh 11764193_at / RFU TMEM53 (11763286_at) / Fold change /veh TMEM53 (11763286_at) / RFU MAGEB2 (11727129_at) / Fold change /veh MAGEB2 (11727129_at) / RFU TMEM200A (11744735_a_at) / Fold change /veh TMEM200A (11744735_a_at) / RFU CCDC152 (11751479_a_at) / Fold change /veh CCDC152 (11751479_a_at) / RFU FAM211A (11726209_a_at) / Fold change /veh FAM211A (11726209_a_at) / RFU RGS16 (11746705_a_at) / Fold change /veh RGS16 (11746705_a_at) / RFU VCAN (11755009_s_at) / Fold change /veh VCAN (11755009_s_at) / RFU RHOB (11743442_s_at) / Fold change /veh RHOB (11743442_s_at) / RFU RGS16 (11720943_a_at) / Fold change /veh RGS16 (11720943_a_at) / RFU RGS16 (11720944_at) / Fold change /veh RGS16 (11720944_at) / RFU, VPS4B / Fold change vs veh, VPS4B / RFU, CREB1 / Fold change vs veh, CREB1 / RFU, DNAJC13 / Fold change vs veh, DNAJC13 / RFU, GNAQ / Fold change vs veh, GNAQ / RFU, CDK5R1 / Fold change vs veh, CDK5R1 / RFU, ZRANB3 / Fold change vs veh, ZRANB3 / RFU, CUL4A / Fold change vs veh, CUL4A / RFU, CCNY / Fold change vs veh, CCNY / RFU, UFL1 / Fold change vs veh, UFL1 / RFU, COG3 / Fold change vs veh, COG3 / RFU, DIAPH2 / Fold change vs veh, DIAPH2 / RFU, SKA2 / Fold change vs veh, SKA2 / RFU, AFF3 / Fold change vs veh, AFF3 / RFU, LMF1 / Fold change vs veh, LMF1 / RFU, IPO11 / Fold change vs veh, IPO11 / RFU, DFFB / Fold change vs veh, DFFB / RFU, FOXP1 / Fold change vs veh, FOXP1 / RFU, CARD8 / Fold change vs veh, CARD8 / RFU, STRN3 / Fold change vs veh, STRN3 / RFU, ADK / Fold change vs veh, ADK / RFU, RASSF2 / Fold change vs veh, RASSF2 / RFU, WIPF1 / Fold change vs veh, WIPF1 / RFU, LARP1B / Fold change vs veh, LARP1B / RFU, RASA1 / Fold change vs veh, RASA1 / RFU, RB1 / Fold change vs veh, RB1 / RFU, PPFIA1 / Fold change vs veh, PPFIA1 / RFU, MAT2A / Fold change vs veh, MAT2A / RFU, CCT5 / Fold change vs veh, CCT5 / RFU, WDR92 / Fold change vs veh, WDR92 / RFU, CUX1 / Fold change vs veh, CUX1 / RFU, TTC7A / Fold change vs veh, TTC7A / RFU, TMEM135 / Fold change vs veh, TMEM135 / RFU, DEPTOR / Fold change vs veh, DEPTOR / RFU, CPM / Fold change vs veh, CPM / RFU, DNAJB6 / Fold change vs veh, DNAJB6 / RFU, CACNA2D3 / Fold change vs veh, CACNA2D3 / RFU, DTX4 / Fold change vs veh, DTX4 / RFU, TFCP2 / Fold change vs veh, TFCP2 / RFU, GMCL1 /// GMCL1P1 / Fold change vs veh, GMCL1 /// GMCL1P1 / RFU, AEBP2 / Fold change vs veh, AEBP2 / RFU, SNHG1 /// SNORD22 /// SNORD25 /// SNORD26 /// SNORD27 /// SNORD28 /// SNORD29 /// SNORD31 / Fold change vs veh, SNHG1 /// SNORD22 /// SNORD25 /// SNORD26 /// SNORD27 /// SNORD28 /// SNORD29 /// SNORD31 / Fold change (Aza/veh), C12orf56 (ProbeSet 11735607_a_at) / Fold change (ACY-1035/veh), C12orf56 (ProbeSet 11735607_a_at) / Fold change (Aza/veh), FGFR1OP (ProbeSet 11751329_s_at) / Fold change (ACY-1035/veh), FGFR1OP (ProbeSet 11751329_s_at) / Fold change (Aza/veh), VPS36 (ProbeSet 11739960_a_at) / Fold change (ACY-1035/veh), VPS36 (ProbeSet 11739960_a_at) / RFU SYPL1 (11715823_x_at) / Fold change /veh SYPL1 (11715823_x_at) / RFU IGFBP7 (11715501_s_at) / Fold change /veh IGFBP7 (11715501_s_at) / RFU REEP3 (11722064_at) / Fold change /veh REEP3 (11722064_at) / RFU IGLL1 (11728026_x_at) / Fold change /veh IGLL1 (11728026_x_at): dose or concentration left out as unconfirmed
Conditions: MV-4-11 cells, 48 hours

In the case of Nc1ccc(-c2cccs2)cc1NC(=O)c1ccc2c(c1)cc(C1CC1)n2CCN1CCOCC1 [ACY-1035], the “Fold change /veh CDKN2B (11736163_a_at)” value is reported as 1.20.
